“And” between values parts separate entries of the source, which are not always exact repeats. Identical values can stand only once.

Assay [1] concerns Polygonum persicaria L. (POLPE). Put plainly: Postemergence herbicidal mixtures for weed control in direct seeded rice (greenhouse, visual % injury). Type of assay: in vivo.
Assay [2] deals with Brachiaria platyphylla (BRISEB.) NASH (BRAPP). Described as above. The assay is classed as in vivo.
The test system of assay [3] is Ischaemum rugosum SALISB. (ISCRU). The assay is described as above. The assay is classed as in vivo.
Assay [4] deals with Ipomoea hederacea (L.) JACQ. (IPOHE). Put plainly: Postemergence herbicidal mixtures for weed control in direct seeded rice (greenhouse, visual % injury after 3 weeks). Type of assay: in vivo. The settings on record: for % Injury Ob: IPOHE.
Assay [5] concerns Digitaria sanguinalis (L.) SCOP. (DIGSA). Briefly: Postemergence herbicidal mixtures for weed control in direct seeded rice (greenhouse, visual % injury). Type of assay: in vivo.
Assay [6] has as its system lamb's-quarters (Chenopodium album L; CHEAL). Briefly: Postemergence herbicidal activity of mixtures in cereal crops (greenhouse, visual injury). Type of assay: in vivo. The method, boiled down:
(§1)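 Compounds A and B, as methyl ester or TEA/K salts, are tested alone and mixed with a second cereal herbicide on greenhouse plants at the second–third true leaf stage. Spray volume is 187 L/ha. Percent visual injury at 20–22 days is compared with Colby-expected mixture response.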

Assay [7] concerns Cyperus esculentus L. (CYPES). Put plainly: Postemergence herbicidal mixtures for weed control in direct seeded rice (greenhouse, visual % injury). Type of assay: in vivo. The following applies: for % Injury Ob: CYPES.
In assay [8] the test system is ivy-leaved speedwell (Veronica hederifolia L; VERHE). Put plainly: Postemergence herbicidal activity of mixtures in cereal crops (greenhouse, visual injury). Type of assay: in vivo. A digest of the protocol: as §1
Assay [9] relates to yellow foxtail (PESGL). The assay is described as above. Type of assay: in vivo, Pennisetum americanum. On the procedure: Seeds of the desired test plant species were planted in Sun Gro MetroMix® 306 planting mixture, which typically has a pH of 6.0 to 6.8 and an organic matter content of about 30 percent, in plastic pots with a surface area of 103.2 square centimeters (cm^2). […] The plants were grown for 7-36 days in a greenhouse with an approximate 14 hour photoperiod which was maintained at about 18° C. during the day and 17° C. during the night. Nutrients and water were added on a regular basis and supplemental lighting was provided with overhead metal halide 1000-Watt lamps as necessary. The plants were employed for testing when they reached the second or third true leaf stage.
Treatments consisted of compound (as listed in Tables 1 through 64) and a second cereal herbicide alone and in combination. […] The concentrated stock solutions were diluted to 1.5 mg ai/mL with the addition of 2 volumes of an aqueous mixture containing acetone, water, isopropyl alcohol, DMSO, Agri-dex crop oil concentrate, and Triton® X-77 surfactant in a 64.7:26.0:6.7:2.0:0.7:0.01 v/v ratio. A dilution solution was prepared by mixing 1 volume of 97:3 v/v acetone/DMSO and 2 volumes of an aqueous mixture containing acetone, water, isopropyl alcohol, DMSO, Agri-dex crop oil concentrate, and Triton® X-77 surfactant in a 64.7:26.0:6.7:2.0:0.7:0.01 v/v ratio. Compound requirements are based upon a 12 mL application volume at a rate of 187 liters per hectare (L/ha). […] Formulated compounds were applied to the plant material with an overhead Mandel track sprayer equipped with 8002E nozzles calibrated to deliver 187 L/ha over an application area of 0.503 square meters (m^2) at a spray height of 18 inches […] above average plant canopy. Control plants were sprayed in the same manner with the solvent blank.
The treated plants and control plants were placed in a greenhouse as described above and watered by sub-irrigation to prevent wash-off of the test compounds. After 20-22 days, the condition of the test plants as compared with that of the control plants was determined visually and scored on a scale of 0 to 100 percent where 0 corresponds to no injury and 100 corresponds to complete kill.
Colby's equation was used to determine the herbicidal effects expected from the mixtures (Colby, S. R. 1967. Calculation of the synergistic and antagonistic response of herbicide combinations. Weeds 15:20-22.).
The following equation was used to calculate the expected activity of mixtures containing two active ingredients, A and B: Expected=A+B−(A×B/100)

Take `COC(=O)c1nc(-c2ccc(Cl)c(OC)c2F)cc(N)c1Cl` [Compound A Methyl, 4-amino-3-chloro-6-(4-chloro-2-fluoro-3-methoxyphenyl)pyridine-2-carboxylic acid methyl ester]: the results for the “% Injury POLPE Ob” value in [1] (alone 8.75 g/ha) and in [1] (alone 17.5 g/ha) were 50% and 90%, respectively. For the same molecule, the “% Injury Ob” value is given as 60% in assay [2] (4.38 g/ha alone); 60% in assay [2] (8.75 g/ha alone); 20% in assay [4] (4.38 g/ha alone); 40% in assay [4] (8.75 g/ha alone); 75% in assay [4] (17.5 g/ha alone); 20% in assay [5] (8.75 g/ha alone). Besides, the “% Injury Ob” value in assay [5] (17.5 g/ha alone) was found to be 50%; in [7] (4.38 g/ha alone) it was 40%; in assay [7] (8.75 g/ha alone), 60%. Also, the entries for the “% Injury ISCRU Ob” value in [3] (alone 8.75 g/ha) and in assay [3] (alone 17.5 g/ha) were 50% and 55%, respectively. The “% Injury IPOHE Ob” value in assay [4] (alone 4.38 g/ha) is 10% and 0%; in [4] (alone 17.5 g/ha), 85% and 75%. Moreover, the “CHEAL Ob” value in [6] (17.5 g/ha) is 90%; in [6] (35 g/ha), 90%; in assay [6] (70 g/ha), 95%. For the same molecule, the results for the “% Injury 11 DAA CYPES Ob” value in assay [7] (alone 8.75 g/ha) and in [7] (alone 17.5 g/ha) were 60% and 70%, respectively. Also, the “% Injury 21 DAA CYPES Ob” value in assay [7] (alone 8.75 g/ha) was found to be 100%; in assay [7] (alone 17.5 g/ha), 99%. Moreover, the “% Injury CYPES Ob” value in assay [7] (alone 4.38 g/ha) was 70% and 85%.
In the case of `COc1c(Cl)ccc(-c2cc(N)c(Cl)c(C(=O)O)n2)c1F` [Compound A TEA, 4-amino-3-chloro-6-(4-chloro-2-fluoro-3-methoxyphenyl)pyridine-2-carboxylic acid], the “VERHE Ob” value in [8] (8.75 g/ha) was 10%; in assay [8] (17.5 g/ha), 20%; in [8] (35 g/ha), 50%; in [8] (70 g/ha), 75%.
In the case of `COC(=O)c1nc(-c2ccc(Cl)c(OC)c2F)nc(N)c1Cl` [Compound B Methyl, 6-amino-5-chloro-2-(4-chloro-2-fluoro-3-methoxyphenyl)pyrimidine-4-carboxylic acid methyl ester], the “PESGL Ob” value in assay [9] (8.75 g/ha) is 60%; in [9] (17.5 g/ha), 65%; in [9] (35 g/ha) it was 65%; in assay [9] (70 g/ha), 70%.

The record behind these values is patent US10556865B2, “Synergistic herbicidal composition containing certain pyridine or pyrimidine carboxylic acids and certain cereal and rice herbicides” (Dow AgroSciences, LLC, priority 2007, dated 2020).
